Several values for one entry are separate records, joined by “and”; a condition that tells them apart may be missing. Identical values can stand only once.
Tests used:
Format in all cases: cell-based, mouse
[1] = tested on: C3H/10T1/2 parental cell line; assay: Cytotoxicity experiment with increasing doses of blasticidin; conditions: doses 0.3-3 μg/ml
Procedure: The selective blasticidin dose was established on the basis of a previous cytotoxicity experiment for the C3H/10T1/2 parental cell line, which received increasing doses of blasticidin (0.3, 0.6, 0.8, 1, 1.5, 2, 2.5, 3 μg/ml). 2 μg/ml was determined to be the lowest dose that induced 100% death due to cytotoxicity.

[2] = tested on: EWS-FLI1 chimeric fusion expression in clone 7.5; assay: Induction of chimeric fusion by doxycycline (RT-PCR), clone 7.5; conditions: 48 hours
Procedure: (§1) FIG. 3. Induction of chimeric fusion by Doxycycline. A. Upper gel. Induction of chimeric fusion following treatment of the cells with increasing doxycycline doses (0-3 μg/ml) in clone 7.5. The maximum induction was obtained for 2.5-μg/ml doxycycline doses. Lower gel. The quantity of amplified product was identical in all cases, as shown by Beta-actin. B. Upper gel. The maximum induction for clone 10.6 was at 1.5-μg/ml doxycycline doses. Higher doses caused saturation of the promoter's response. Lower gel. Beta-actin.
(§2) Clones 7.5 and 10.6 received increasing doses of doxycycline for 48 hours, after which time the presence of fusion was examined by means of RT-PCR.

[3] = tested on: EWS-FLI1 chimeric fusion expression in clone 10.6; assay: Induction of chimeric fusion by doxycycline (RT-PCR), clone 10.6; conditions: 48 hours
Procedure: as §1, §2

Structure (SMILES) | lowest dose that induced 100% death due to cytotoxicity [1] [µg/mL] | doxycycline dose causing a slight induction of chimeric fusion [2] [µg/mL] | doxycycline concentration of maximum induction of chimeric fusion ([2]; doses 0-3 μg/ml) [µg/mL] | doxycycline concentration of maximum induction of chimeric fusion (higher doses cause no greater induction) [3] | doxycycline dose at which induction of fusion was found [3]
CN(CC[C@H](N)CC(=O)N[C@H]1C=C[C@H](n2ccc(N)nc2=O)O[C@@H]1C(=O)O)C(=N)N [blasticidin] | 2 |  |  |  | 
C[C@H]1c2cccc(O)c2C(=O)C2=C(O)[C@]3(O)C(=O)C(C(N)=O)=C(O)[C@@H](N(C)C)[C@@H]3[C@@H](O)[C@@H]21 [doxycycline] |  | 0.3 | 2.5 | 1.5 to 2 µg/mL and 1.5 µg/mL | greater than 0.3 μg/ml

From patent US20090217390A1, “Non-human animal sarcoma model” (priority 2005, published 2009)
